Data: patent US5424442A, “Water-soluble methine compounds useful in photographic silver halide emulsion containing the same” (Fuji Photo Film Co., Ltd., priority 1990, dated 1995)

Tests used:
[1] = Spectral sensitization of photographic silver halide emulsion; set-up: Yellow filter sensitivity (SY) / Red filter sensitivity (SR): scale not given here; settings: Table 5
Method: A silver halide emulsion comprising pure silver bromide and having a cubic crystal form (the area ratio of the plane to the entire surface area of grain being 92%) was prepared and subjected to a sulfur sensitization treatment. The average diameter of silver halide grains contained in the emulsion was 0.68 μm, and 0.74 mol of silver halide per kg of emulsion was contained in the emulsion. One kg of the emulsion was weighed in each of pots. An aqueous solution of each of the compounds of formula (I) indicated in Tables 4 and 5 was added to the pot, and the mixture was mixed with stirring at 40° C. For the purpose of comparison, comparative compounds 1 and 2 wherein counter ion was iodide were dispersed in water and added to respective pots.
Further, 4-hydroxy-6-methyl-1,3,3a,7-tetraazaindene in an amount of 0.1 g/kg of emulsion, sodium salt of 2,4-dichloro-6-hydroxy-1,3,5-triazine in an amount of 0.1 g/kg of emulsion and sodium dodecylbenzenesulfonate in an amount of 0.1 g/kg of emulsion in order were added thereto. The emulsion was then coated on a polyethylene terephthalate film to obtain a photographic material.
Each of these samples was exposed through an optical wedge for 5 seconds by using a yellow filter (SC-50, a product of Fuji Photo Film Co., Ltd.) or a red filter (SC-60, a product of Fuji Photo Film Co., Ltd.) and tungsten light (5400° K.).
A spectrogram was obtained by using a grating spectrograph having a tungsten light source of 2666° K., and the maximum sensitization was measured.
After exposure, the samples were developed at 20° C for 4 minutes by using the following developing solution. The density of each of the developed films was measured by using a densitometer (manufactured by Fuji Photo Film Co., Ltd. Spectral sensitivity, that is, yellow filter sensitivity (SY) or red filter sensitivity (SR), sensitivity (SB) in the sensitive region inherent in silver halide, and fog were determined. Sensitivity was determined when the standard point of optical density was referred to as (Fog+0.2). Composition of Developing Solution […]
Two volumes of water were added thereto to obtain a working solution when used.

[2] = Solubility in solvents (dissolution in incubator, filtration through microfilter, visible absorption); assay type: physicochemical; settings: water; Table 3; read-out: Solubility in Water
Source text: The solubility of some of the compounds within formula (I) was accurately measured.
The measurement of solubility was made in the following manner.

CCn1c(=CC2=CC(=Cc3sc4ccccc4[n+]3CC)Oc3ccccc32)sc(=C2Sc3ccc(OC)cc3N2C)c1=O [Compound 150]
Red filter sensitivity (SR) ([1]; red filter SC-60, 5 seconds exposure, standard point Fog+0.2): 905
Maximum Sensitization ([1]; spectrogram, tungsten light source of 2666° K.): 695 nm
solubility at 12 h [2]: 2100 µg/mL
